Here are results for 5 compounds from patent US10072035B2, “Phenanthroline phosphonic acid derivative and preparation method therefor and application thereof” (Guangzhou Beryl Therapeutics, Inc, priority 2014, dated 2018).

Series [1] can be described thus: Concentration of compound 16c and 9c in liver after PO dosing of compound 27. Type of series: in vivo, Wistar rats. Particulars: rat; for concentration at 0.25 h / concentration at 0.75 h / concentration at 8 h / concentration at 24 h: both sexes, Wistar, liver; for concentration at 0.25 h: 0.25 h after oral administration of compound 27 (39 mg/kg); for concentration at 0.75 h: 0.75 h after oral administration of compound 27 (39 mg/kg); for concentration at 8 h: 8 h after oral administration of compound 27 (39 mg/kg); for concentration at 24 h: 24 h after oral administration of compound 27 (39 mg/kg); for Conversion of prodrug in vivo: after PO dosing of compound 27. The procedure:
16 Wistar rats (200±20 g) were divided into 4 groups randomly, female and male each half in each group, ate and drank freely before the experiment. After PO dosing of compound 27 (39 mg·kg^−1), rats were sacrificed at each time point 15 min, 45 min, 8 h, 24 h. Liver samples were collected, washed off blood and contents with saline, cut into small pieces, and stirred evenly. 1 g was weighed. 1 mL Methanol/water was added. After homogenated, additional 1 mL methanol/water was added. The mixture was sonicated for 15 seconds, centrifuged (4500 rpm) for 10 minutes. The upper clear solution was tested using LC-MS/MS method to give the concentration of compound 16c and 9c in liver at different time points after administration (table 2).

A short description of series [2]: In-vivo pharmacokinetics in plasma of rats. The arrangement: species or system Wistar rats. The procedure: Wistar rats (200±20 g) were divided into 2 groups, 6 each, half female and half male in each group, ate and drank freely. The first group was given compound 16c 3 mg·kg^−1 caudal-intravenously. The second group was orally administered disodium salt of compound 27 (39 mg·kg^−1). Blood (0.3 mL) was collected from retroorbital vein at time point 0 h, 0.08 h, 0.17 h, 0.33 h, 0.5 h, 0.75 h, 1 h, 1.5 h, 2 h, 3 h, 5 h, 7 h, placed into cold heparinized Eppendorf tubes. The samples were centrifuged at 4° C. (15000 rpm) for 5 min. Transfer 100 μL plasma sample to −80° C. freezer for test.
Quantitative LC-MS/MS analysis methods of compound 9c and prodrug 16c in plasma were set up, using diazepam and mildronate as internal standard, respectively. (Prodrug 27 was not detected under experimental condition from plasma) the plasma sample was tested and analyzed. (result see in Table 1 and FIG. 2)
Oral Bioavailability was calculated according to compound 16c in plasma. Area under concentration-time curve (AUC) of PO dosing was divided by AUC of iv dosing of same amount of drugs, expressed as absorption percentage: Bioavailability (F)=AUCpo·Miv/AUCiv·Mpo×100%. Wherein, Miv means the molar concentration of drugs by iv dosing, and Mpo means the molar concentration of drugs by PO dosing. The AUC0-t of compound 16c in plasma

The next series has as its target T1, human P4H enzyme (Homo sapiens, UniProt P13674).
T1 construct: made in house; host or cells: E. coli Origami2(DE3)
Description: P4H enzymatic activity, coupled succinyl CoA synthase / MLG phosphate assay. The class given is biochemical. Particulars: 50 nM P4H, 100 uM 2-oxoglutarate, 45 min at 25° C., n=2, FIG. 1. The text has this:
Human recombinant P4H was expressed in E. coli. Briefly, DNA encoding the signal sequence of P4H was cloned into pET28_N-His_TEV, the resulting plasmid pET28_N-His_TEV_P4HA1/PDI was transferred to E. coli Origami2(DE3) to co-expressed. The enzyme obtained was purified with MonoQ ion-exchange column, TEV digested and confirmed by MS, passed through Histrap HP column, finally purified with Hiload16/60 superdex 200 column.
The measurement of the enzymatic activity of purified P4H zymoprotein and the assay of the influence of the compound to the enzymatic activity were performed at the following coupling enzymatic reaction system: 100 mM Tris (pH7.0), 0.1 mM (NH4)2Fe(SO4)2, 0.1 mM ascorbic acid, 0.2 mM CoA, 0.2 mM ATP, 0.5 uM succinyl CoA synthase, 100 uM 2-oxoglutarate, 100 uM (Pro-Pro-Gly)10peptide, 50 nM P4H enzyme, 50 ul total. After 45 min reaction at 25° C., 10 ul MLG R1 was added and reacted for 10 min, 10 ul MLG R2 was added and reacted for 20 min. P4H catalyst 2-oxoglutaric acid and polypeptide with coenzyme and suitable enzyme reaction environment to give product succinic acid. The product succinic acid then produced succinyl CoA and phosphoric acid with the action of succinyl CoA synthase. The level of generated phosphoric acid could be measured by MLG, which reflects the level of P4H. The generated green product (MG+)(H2PMo12O40) was measured at OD 630 nm. […]

The next series deals with hepatic stellate cells. Particulars: cited from earlier work.
For series [3] the following is noted: cited from earlier work.
For the next series, the system named is myocardial infarction. Particulars: in vivo; cited from earlier work.
Series [4] relates to BDL rats having liver fibrosis. Description: Bile Duct Ligation induced liver fibrosis model in rats. Type of series: in vivo, Wistar rats. The text has this: This experiment used Bile Duct Ligation to induce liver fibrosis model in rats. Treatment of BDL rats with PO dosing prodrug 27 was studied.
Briefly, Wistar rats (200±20 g) were divided into 3 groups, half female and half male in each group:
SHAM group: 6 rats were anaesthetized, the abdominal skin was shaved and sterilized regularly, the common bile duct was exposed by an upper abdominal midline incision with sterile operation. Muscle and skins were sutured separately.
liver fibrosis MODEL group: 12 rats were anaesthetized, the abdominal skin was shaved and sterilized regularly, the common bile duct was exposed and ligated by an upper abdominal midline incision with sterile operation. Muscle and skins were sutured separately.
Dosing group: 12 rats were anaesthetized, the abdominal skin was shaved and sterilized regularly, the common bile duct was exposed and ligated by an upper abdominal midline incision with sterile operation. Muscle and skins were sutured separately. After operation, disodium salt of compound 27 (30 mg/kg) was dissolved in water and dosed orally to the rats once per day test indexes:
After 2 weeks, measure the ALT and AST of serium and liver homogenate
After 2 weeks, rats were sacrificed, and liver performed HE staining and Masson staining.

Setting [5] is: both sexes, rat, compound 16c in plasma after compound 16c IV 3 mg/kg, Wistar rats.

Structures are written as SMILES.

T1 sequence (P13674 18-534): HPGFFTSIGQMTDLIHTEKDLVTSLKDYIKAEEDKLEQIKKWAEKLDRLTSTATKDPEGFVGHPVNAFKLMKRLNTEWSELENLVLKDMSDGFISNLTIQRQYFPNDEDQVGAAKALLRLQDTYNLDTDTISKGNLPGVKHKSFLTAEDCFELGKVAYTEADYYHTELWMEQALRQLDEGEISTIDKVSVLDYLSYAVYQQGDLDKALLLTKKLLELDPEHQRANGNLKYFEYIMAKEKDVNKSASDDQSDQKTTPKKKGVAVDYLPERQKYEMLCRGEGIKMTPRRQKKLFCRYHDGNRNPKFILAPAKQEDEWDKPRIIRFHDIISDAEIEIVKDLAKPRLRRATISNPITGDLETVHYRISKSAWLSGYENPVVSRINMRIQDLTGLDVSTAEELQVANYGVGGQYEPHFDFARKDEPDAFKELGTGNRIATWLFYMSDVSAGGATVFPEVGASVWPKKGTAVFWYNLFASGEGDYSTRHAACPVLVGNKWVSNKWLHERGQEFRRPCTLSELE
T1 sequence (P07237 18-508 partner): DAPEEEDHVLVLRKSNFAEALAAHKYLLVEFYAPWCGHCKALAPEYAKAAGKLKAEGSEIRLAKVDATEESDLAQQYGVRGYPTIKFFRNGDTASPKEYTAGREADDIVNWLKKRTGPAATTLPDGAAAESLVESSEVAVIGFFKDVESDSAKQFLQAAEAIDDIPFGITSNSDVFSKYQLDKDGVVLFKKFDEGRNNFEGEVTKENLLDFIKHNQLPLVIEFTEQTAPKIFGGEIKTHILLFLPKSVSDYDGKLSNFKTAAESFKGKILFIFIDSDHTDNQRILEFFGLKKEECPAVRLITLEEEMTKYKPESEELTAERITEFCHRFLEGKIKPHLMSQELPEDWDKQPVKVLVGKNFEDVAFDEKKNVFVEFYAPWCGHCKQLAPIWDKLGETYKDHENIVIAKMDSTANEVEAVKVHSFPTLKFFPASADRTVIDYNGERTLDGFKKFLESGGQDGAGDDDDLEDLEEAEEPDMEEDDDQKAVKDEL

Take `O=P1(c2cnc3c(ccc4c(O)ccnc43)c2)OCC[C@@H](c2cccc(Cl)c2)O1` (stereo partly drawn) [Compound 16c, (4S)-4-(3-chlorophenyl)-2-(7-hydroxy-1,10-phenanthrolin-3-yl)-1,3,2-dioxaphosphinan-2-one]: in series [1], the concentration at 0.25 h turned out to be 522 ng/g, the concentration at 0.75 h amounted to 662 ng/g, the concentration at 8 h was determined as 584 ng/g and the concentration at 24 h was found to be 50.9 ng/g. Besides, the “Conversion of prodrug in vivo” value in series [1] is listed as “converted to compound 9c in liver”. Also, in series [2] (after compound 16c 3 mg/kg intravenously), the AUC0-t of compound 16c in plasma worked out at 2060 ng·h/mL. In series [2] (setting [5]), this compound gave an area under the curve AUC(0-inf) of 2140 ng·h/mL and an AUC(0-t) of 2060 ng·h/mL. In series [2] (both sexes, rat, compound 16c in plasma after compound 16c IV 3 mg/kg, Wistar rats, read-out: Cmax (peak concentration in plasma)), the Cmax was 1620 ng/mL. In series [2] (both sexes, rat, compound 16c in plasma after compound 16c IV 3 mg/kg, Wistar rats, read-out: t1/2 (half life of drug in plasma) (converted)), the half-life is 1.5 h.

`O=P(O)(O)c1cnc2c(ccc3c(O)ccnc32)c1` [Compound 9c, 7-hydroxy-1,10-phenanthrolin-3-yl phosphonic acid]: in series [1], the concentration at 0.25 h came to 16.1 ng/g, the concentration at 0.75 h came out at 64.2 ng/g, the concentration at 8 h was determined as 44.7 ng/g and the concentration at 24 h came out at 3.55 ng/g. Besides, half-maximal inhibition on human P4H enzyme (IC50) was put at 8.1 µM.

For `COCCNC(=O)c1ccnc(C(=O)NCCOC)c1` [HOE077], in the series with hepatic stellate cells, the “activation of hepatic stellate cells” value is recorded as “inhibits”, the “expression of procollagen mRNA” value is “inhibits”, the “hepatic stellate cells proliferation” value is “reduces” and the “synthesis of total protein of cell” value is on record as “no effect”. Also, the “side effects in clinical trials” value in series [3] is on record as “severe side effects (cataract)”.

Regarding `O=C(O)c1c[nH]c2c(ccc3cccnc32)c1=O` [FG-041, 1,4-dihydrophenanthrol-4-one-3-carboxylic acid], the “myocardial infarction in animal experiment” value with myocardial infarction is recorded as “prevent myocardial infarction”.

The compound `O=c1ccn(COP(=O)(O)O)c2c1ccc1cc(P3(=O)OCC[C@@H](c4cccc(Cl)c4)O3)cnc12` (stereo partly drawn) [Compound 27, (3-(4S-4-(3-chlorophenyl)-1,3,2-dioxaphosphinan-2-one-2-yl)-1,10-phenanthrolin-7-one)-10(7H)-methyl phosphoric acid] came in with an ALT in serum in series [4] (BDL rats, 30 mg/kg PO once per day, 2 weeks, MODEL 144.4 ± 15.94, SHAM 67.1 ± 5.45) of 74.4 ± 17.82 IU/L. Besides, the AST in serum in series [4] (BDL rats, 30 mg/kg PO once per day, 2 weeks, MODEL 207.2 ± 30.96, SHAM 67.7 ± 4.67) stood at 87.2 ± 12.51 IU/L. For the same compound, in series [4] (BDL, PO 30 mpk, 2 weeks, FIG. 5), the “H&E staining of rat liver” value is listed as “varies the pathological changes of hepatic tissue”. In series [4] (after 14 days of administration, P<0.01), the “ALT and AST of the serium and liver homogenate versus model group” value is “decreased significantly”. Moreover, the ALT in liver in series [4] (liver homogenate, BDL rats, 30 mg/kg PO once per day, 2 weeks, MODEL 136.8 ± 16.48) is on record as 76.4 ± 11.35 IU/L. The compound further registered an AST in liver in series [4] (liver homogenate, BDL rats, 30 mg/kg PO once per day, 2 weeks, MODEL 198.75 ± 27.70) of 91.42 ± 8.79 IU/L. Also, the “Conversion of prodrug in vivo” value in series [1] was “converted to compound 16c in rat”. In addition, the “Detection of prodrug 27 in plasma” value in series [2] (LC-MS/MS, after PO dosing 39 mg/kg) was “not detected”.
